Source: patent publication US8124579B2, “Heat shock protein 20-related polypeptides and uses therefor” (Arizona Board of Regents, priority 2003, dated 2012)

Test system: Swiss 3T3 cells
Assay: Actin stress fibers and cell morphology, phalloidin staining
Type: cell-based
Details: peptides 25 μM, forskolin and lysophosphatidic acid 10 μM, serum 10%, 30 minutes, phalloidin stain
Method: Unless otherwise stated, all reagents were purchased from Sigma, St. Louis, Mo. Swiss Albino 3T3 fibroblasts (ATCC, Manassas, Va.) were cultured in DMEM supplemented with 10% BCS, 4 mM L-glutamine and 50 μg/ml penicillin-streptomycin and maintained at 37° C., 5% CO2. Cells were seeded and cultured overnight. Culture media was replaced with DMEM containing 0.5% BCS 1 hour prior to experimentation. Cells were incubated with the peptide analogues or reagent (LPA or forskolin) diluted in DMEM containing 0.5% BCS, 30 minutes at 37° C. Cells were then fixed in 4% paraformaldehyde, permeabilized in 0.25% Triton X-100, and blocked with 1% BSA solution for 1 hour. To determine α-actin cytoskeletal distribution, treated cells were incubated with Alexa 568 phalloidin (Molecular Probes, Eugene, Oreg.) in 1% BSA, 30 min. To determine focal adhesion protein localization, treated cells were incubated with primary monoclonal antibodies for α-actinin (1:100, Upstate, Charlottesville, Va.), vinculin (1:100, Sigma) or paxillin (1:100, BD Bioscience-Transduction Labs, San Jose, Calif.) in 1% BSA solution for 2 hours, rinsed in PBS and incubated 60 minutes with Cy3-goat IgG secondary antibody (Jackson ImmunoResearch, West Grove, Pa.). Slides were mounted and analyzed by confocal microscopy (Leica TCS SP2, Bannockburn, Ill.). […]

Substance: lysophosphatidic acid
- stress fibers and cell morphology: displayed robust stress fibers
